#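 Values below derive from 48-hour exposures of cells grown in 96-well plates, with endpoints linearly interpolated between the two concentrations bracketing the appropriate inhibition level. TGI: concentration producing complete growth inhibition.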
# Assays:
# Assay in all cases: inhibition of tumour cell growth, NCI panel, 48 h
# [1] = test system: CCRF-CEM leukemia
# [2] = test system: SK-MEL-28 melanoma
# [3] = test system: DU-145 prostate
# [4] = test system: RXF 393 renal
# [5] = test system: SW-620 colon
# [6] = test system: NCI-H226 lung
# [7] = test system: LOX IMVI melanoma
# [8] = test system: RPMI-8226 leukemia
# [9] = test system: PC-3 prostate
# [10] = test system: OVCAR-5 ovarian
# [11] = test system: SR leukemia
# [12] = test system: MOLT-4 leukemia
SMILES,TGI [1],TGI [2],TGI [3],TGI [4],TGI [5],TGI [6],TGI [7],TGI [8],TGI [9],TGI [10],TGI [11],TGI [12]
NCCCN(CCCCN(CCCN)CCCc1ccccc1)CCCc1ccccc1,7.83 µM,2.98 µM,23.8 µM,5.64 µM,10.6 µM,38.8 µM,6.38 µM,6.15 µM,12.3 µM,24.9 µM,7.19 µM,5.21 µM
CSc1c(C(C)=O)c(O)n(-c2ccc(C)cc2)c(=O)c1C#N,> 100 µM,> 100 µM,> 100 µM,> 100 µM,> 100 µM,> 100 µM,> 100 µM,> 100 µM,> 100 µM,> 100 µM,> 100 µM,> 100 µM
C[N+]1(C)CCCC(C#N)(c2ccccc2)CC1 (centres undefined),> 100 µM,> 100 µM,> 100 µM,> 100 µM,> 100 µM,–,–,> 100 µM,> 100 µM,> 100 µM,> 100 µM,> 100 µM
O=C(NNC(=O)c1ccco1)c1ccco1,> 100 µM,> 100 µM,> 100 µM,> 100 µM,> 100 µM,> 100 µM,> 100 µM,> 100 µM,> 100 µM,> 100 µM,> 100 µM,> 100 µM
ClC1=NSSC1(Cl)Cl,> 100 µM,–,> 100 µM,> 100 µM,82.3 µM,> 100 µM,> 100 µM,56 µM,> 100 µM,85 µM,60.2 µM,53.4 µM
C=C1OC2OC(C)C(NC(=O)OCC(Cl)(Cl)Cl)C(OC(C)=O)C2O1 (centres undefined),> 100 µM,> 100 µM,> 100 µM,> 100 µM,> 100 µM,> 100 µM,> 100 µM,> 100 µM,> 100 µM,> 100 µM,> 100 µM,> 100 µM
OC12CCC3(OC4CCCCO4)c4ccccc4C3C1c1ccccc12 (centres undefined),> 100 µM,> 100 µM,–,> 100 µM,> 100 µM,> 100 µM,> 100 µM,> 100 µM,–,–,> 100 µM,> 100 µM
CCOC(=O)C1=C(O)CC(=O)N=C1N1CCCC1,> 100 µM,> 100 µM,> 100 µM,> 100 µM,> 100 µM,> 100 µM,> 100 µM,> 100 µM,> 100 µM,> 100 µM,> 100 µM,> 100 µM
CN(C(=O)Cc1ccccc1)n1cn[n+](CC(=O)OC(C)(C)C)c1,> 10 µM,> 10 µM,> 10 µM,–,> 10 µM,> 10 µM,> 10 µM,> 10 µM,> 10 µM,> 10 µM,> 10 µM,> 10 µM
C/C(=C\C(=O)Nc1ccc2n[nH]nc2c1)Nc1ccc2n[nH]nc2c1,> 100 µM,> 100 µM,–,> 100 µM,> 100 µM,> 100 µM,> 100 µM,> 100 µM,–,> 100 µM,> 100 µM,> 100 µM
COc1ccc(OC)c2c(C(C)=O)cccc12,> 100 µM,> 100 µM,> 100 µM,> 100 µM,> 100 µM,> 100 µM,–,> 100 µM,> 100 µM,> 100 µM,> 100 µM,> 100 µM
Cc1ccc(/C=c2\cc3oc(=O)c4cccc(c4-3)c2=O)cc1,68.2 µM,> 100 µM,> 100 µM,–,> 100 µM,–,> 100 µM,> 100 µM,> 100 µM,> 100 µM,> 100 µM,–
Cc1nn2c(=O)c([N+](=O)[O-])c(/C=C/c3ccc(F)cc3)nc2s1,23.5 µM,19.7 µM,> 31.6 µM,10.7 µM,19.3 µM,19 µM,9.19 µM,19.7 µM,22 µM,18 µM,16.5 µM,28.6 µM
CC1OC(OC2C(O)CC(OC3C(O)CC(OC4CCC5(C)C(CCC6C5CCC5(C)C(C7=CC(=O)OC7)C(O)CC65O)C4)OC3C)OC2C)CC(O)C1O (centres undefined),> 100 µM,5.86 µM,0.236 µM,0.299 µM,–,2.14 µM,0.235 µM,1.52 µM,1.59 µM,5.62 µM,> 100 µM,–
CNC(=O)OCc1cnc([N+](=O)[O-])n1C,> 100 µM,> 100 µM,> 100 µM,> 100 µM,> 100 µM,> 100 µM,> 100 µM,> 100 µM,> 100 µM,> 100 µM,> 100 µM,> 100 µM
O=C(O)CN1C(=O)c2ccc(NC(=O)C(=O)O)cc2S1(=O)=O,> 100 µM,> 100 µM,> 100 µM,> 100 µM,> 100 µM,> 100 µM,> 100 µM,> 100 µM,> 100 µM,> 100 µM,> 100 µM,> 100 µM
Nc1nc(Sc2ccc([N+](=O)[O-])c3nonc23)c2[nH]cnc2n1,2.13 µM,22.3 µM,16.2 µM,8.32 µM,2.87 µM,11.3 µM,11.7 µM,5.62 µM,18 µM,17.3 µM,1.77 µM,1.8 µM
C[C@]12CC[C@H]3[C@@H](CC=C4C[C@@H](O)CC[C@@]43C)[C@@H]1C/C(=C\c1cccnc1)[C@@H]2O,> 100 µM,> 100 µM,67.4 µM,80.2 µM,> 100 µM,57.4 µM,4.46 µM,> 100 µM,> 100 µM,> 100 µM,> 100 µM,–
C=CCOCC1C2CCC3(OCCO3)C21 (centres undefined),> 100 µM,> 100 µM,> 100 µM,> 100 µM,> 100 µM,> 100 µM,> 100 µM,> 100 µM,> 100 µM,> 100 µM,> 100 µM,> 100 µM
CCCOC(=O)c1cc(O)c(O)c(O)c1,> 100 µM,> 100 µM,> 100 µM,> 100 µM,> 100 µM,> 100 µM,30.8 µM,> 100 µM,> 100 µM,> 100 µM,> 100 µM,> 100 µM

# — PubChem BioAssay (NCI)
